Source: US4499187A, “Method for evaluating mutagenicity” (Mobil Oil Corporation, priority 1984, dated 1985)

Columns and labels:
[1] = tested on: Salmonella typhimurium tester strain TA98; assay: Modified Ames test with Aroclor 1254-induced rat liver S9 on DMSO extract (specific mutagenic activity, revertants); type: cell-based
Protocol: (§1) The hydrocarbon mixture to be assayed is extracted with an equal volume of DMSO five times, and the extracts are combined. The combined extract, which serves as surrogate for the hydrocarbon itself, is assayed using Salmonella typhimurium tester strain TA98 together with Aroclor 1254-induced rat liver S9. Prior to use, the rat liver S9 homogenate, obtained from Litton Bionetics, Kensington, Md., was stored at -80° C., and thawed on ice for 4 hours prior to use.
The assay is conducted by first introducing into a series of sterile capped culture tubes up to about eight different doses of the combined extract. The doses, usually in the range of 10 to 75 microliters, are selected to delimit the linear portion of the doseresponse curve. Duplicate or triplicate tubes are prepared for each dose level. […] Plates are incubated inverted at 37° C. in the dark and revertant colonies are counted 48 hours later.
Spontaneous reversion rates (47±8.5) and negative (solvent) control rates (47±8.5) were determined for all tests. […]
Specific mutagenic activity is assessed from the slope of the linear portion of the dose response curve that is obtained, and may be reported as revertants per μl of extract. […]

[2] = tested on: Salmonella typhimurium tester strain TA98; assay: Modified Ames test with induced hamster liver S9 (TA98 revertants/plate); type: cell-based; details: 2 ug per plate
Protocol: as §1
The assay is conducted by first introducing into a series of sterile capped culture tubes up to about eight different doses of the combined extract. The doses, usually in the range of 10 to 75 microliters, are selected to delimit the linear portion of the doseresponse curve. Duplicate or triplicate tubes are prepared for each dose level. This is followed by 0.5 ml S9 mix containing 400 μl S9, 8 μM MgCl2, 33 μM KCl, 5 μM glucose-6-phosphate, 4 μM NADP and 100 μM sodium phosphate (pH 7.4), and 0.1 ml Salmonella typhimurium broth culture (1×10^9 cells/ml). The cultures are incubated at 37° C. with agitation for 20 minutes, following which top agar (0.6% agar, 0.5% NaCl, 0.5 mM histidine-biotin) is added. The tubes are vortexed to ensure adequate mixing and the contents overlaid on 30 ml Vogel-Bonner minimal media plates. Plates are incubated inverted at 37° C. in the dark and revertant colonies are counted 48 hours later. […]

Nc1ccc2cc3ccccc3cc2c1 [2-aminoanthracene]
TA98 Revertants/Plate, 400 ul Rat S9 ([1]; 2 ug per plate, 400 ul rat S9): 313 Revertants/Plate
revertants (positive control) ([1]; 2 μg/plate, TA98, rat liver S9): 441±285 revertants
TA98 Revertants/Plate, 400 ul Hamster S9 ([2]; 400 ul hamster S9): 639 Revertants/Plate
TA98 Revertants/Plate, 400 ul Hamster S9 + 2xNADP ([2]; 400 ul hamster S9 + 2xNADP (8 mM)): 977 Revertants/Plate
